In patent publication US20230129721A1, “STABILIZER FOR RADIOPHARMACEUTICALS AND RADIOPHARMACEUTICAL COMPOSITION COMPRISING THE SAME” (THE ASAN FOUNDATION, priority 2020, published 2023):

What was measured:
[1] = Radiochemical purity of [^18F]PI-2620 radiopharmaceutical composition over time at 40° C. by HPLC; type: physicochemical
Description: Fluoride ([^18F]) and 2 mg of a precursor were dissolved in dimethyl sulfoxide, and the reaction mixture was fluorinated using an SN2 reaction at a temperature of 100° C. or higher. Then, a protecting group was hydrolyzed with sulfuric acid, and the mixture was neutralized with sodium hydroxide, purified using high-performance liquid chromatography (HPLC) (purification conditions: Luna C18 250×10 mm, phosphate buffer:acetonitrile=70:30 (v/v), 5.0 mL/min, UV=254 nm), and then formulated (formulation composition: 100 mg of sodium ascorbate, 2 nM phosphate buffer, and 10% ethanol) to obtain the [^18F]PI-2620 compound having a radiochemical purity of 100% (FIG. 1).
[^18F]PI-2620 was formulated with ethanol, ascorbic acid, and a phosphate buffer, and the radiochemical purity of the radiopharmaceutical composition was then measured at the elapsed times of 0 hour, 2 hours, 4 hours, and 6 hours at a temperature of 40° C. using HPLC (analysis conditions: Luna C18 250×4.6 mm, phosphate buffer:acetonitrile=60:40 (v/v), 1.0 mL/min, UV=254 nm).
[^18F]PI-2620 was obtained as a compound having a radiochemical purity of 100% in the same manner as in Example 1. To further confirm the stability of the compound, 2 equivalents of sodium ascorbate used in Example 1 was added during a formulation process (formulation composition: 200 mg of sodium ascorbate, a 2 nM phosphate buffer, and 10% ethanol), and the radiochemical purity of the radiopharmaceutical composition was then measured in the same manner as in Example 1 at the elapsed times of 0 hour, 2 hours, 4 hours, and 6 hours at a temperature of 40° C. using high-performance liquid chromatography (HPLC)
[^18F]PI-2620 was obtained as a compound having a radiochemical purity of 100% in the same manner as in Example 1. To check the causes of a decrease in radiochemical purity, the radiochemical purity of the radiopharmaceutical composition was then measured in the same manner as in Example 1 at the elapsed times of 0 hour, 2 hours, 4 hours, and 6 hours at a temperature of 40° C. under three formulation conditions (Condition 1: ethanol and water for injection (formulation composition: 10% ethanol); Condition 2: ethanol and a phosphate buffer (formulation composition: a 2 nM phosphate buffer and 10% ethanol); Condition 3: ethanol and a 2×phosphate buffer (formulation composition: a 4 nM phosphate buffer and 10% ethanol)) using high-performance liquid chromatography (HPLC).
[^18F]PI-2620 was obtained as a compound having a radiochemical purity of 98% or more in the same manner as in Example 1. As a novel stabilizing agent, vitamin B1 (VB1), vitamin B6 (VB6), vitamin B8 (VB8), vitamin B10 (VB10), or vitamin B12 (VB12) (formulation composition: 10% ethanol and a 50 mg/mL vitamin concentration) was added to ethanol and water for injection, and the radiochemical purity of the radiopharmaceutical composition was measured in the same manner as in Example 1 at the elapsed times of 0 hour, 2 hours, 4 hours, and 6 hours at a temperature of 40° C. using high-performance liquid chromatography (HPLC). A preparation including no vitamin B was used as the control.
[^18F]PI-2620 was obtained as a compound having a radiochemical purity of 98% or more in the same manner as in Example 1, and formulated with ethanol and a phosphate buffer (formulation composition: a 2 nM phosphate buffer and 10% ethanol). As a novel stabilizing agent, vitamin B1 (VB1), vitamin B6 (VB6), vitamin B8 (VB8), or vitamin B10 (VB10) was added at a concentration of 50 mg/mL, and the radiochemical purity of the radiopharmaceutical composition was measured in the same manner as in Example 1 at the elapsed times of 0 hour, 2 hours, 4 hours, and 6 hours at a temperature of 40° C. using high-performance liquid chromatography (HPLC). A preparation in which sodium ascorbate was added to the same concentrations of ethanol and phosphate buffer was used as the control. […]

[2] = pH (paper) of [^18F]PI-2620 radiopharmaceutical composition over time at 40° C.; type: physicochemical
[3] = [^18F]PI-2620, ethanol and water for injection (10% ethanol), 50 mg/mL vitamin, no phosphate buffer, 0 hr
[4] = [^18F]PI-2620, ethanol and water for injection (10% ethanol), 50 mg/mL vitamin, no phosphate buffer, 2 hr
[5] = [^18F]PI-2620, ethanol and water for injection (10% ethanol), 50 mg/mL vitamin, no phosphate buffer, 4 hr
[6] = [^18F]PI-2620, ethanol and water for injection (10% ethanol), 50 mg/mL vitamin, no phosphate buffer, 6 hr
[7] = 10% ethanol, water for injection, 50 mg/mL vitamin, 0 hr
[8] = 10% ethanol, water for injection, 50 mg/mL vitamin, 2 hr
[9] = 10% ethanol, water for injection, 50 mg/mL vitamin, 4 hr
[10] = 10% ethanol, water for injection, 50 mg/mL vitamin, 6 hr
[11] = [^18F]PI-2620, 2 nM phosphate buffer and 10% ethanol, vitamin 50 mg/mL (control: sodium ascorbate), 0 hr
[12] = [^18F]PI-2620, 2 nM phosphate buffer and 10% ethanol, vitamin 50 mg/mL (control: sodium ascorbate), 2 hr
[13] = [^18F]PI-2620, 2 nM phosphate buffer and 10% ethanol, vitamin 50 mg/mL (control: sodium ascorbate), 4 hr
[14] = [^18F]PI-2620, 2 nM phosphate buffer and 10% ethanol, vitamin 50 mg/mL (control: sodium ascorbate), 6 hr
[15] = 2 nM phosphate buffer and 10% ethanol, vitamin 50 mg/mL (control: sodium ascorbate), 0 hr
[16] = 2 nM phosphate buffer and 10% ethanol, vitamin 50 mg/mL (control: sodium ascorbate), 2 hr
[17] = 2 nM phosphate buffer and 10% ethanol, vitamin 50 mg/mL (control: sodium ascorbate), 4 hr
[18] = 2 nM phosphate buffer and 10% ethanol, vitamin 50 mg/mL (control: sodium ascorbate), 6 hr

Purity (radiochemical purity) [1, 3]	Purity (radiochemical purity) [1, 4]	Purity (radiochemical purity) [1, 5]	Purity (radiochemical purity) [1, 6]	PH (paper) [2, 7]	PH (paper) [2, 8]	PH (paper) [2, 9]	PH (paper) [2, 10]	Purity (radiochemical purity) [1, 11]	Purity (radiochemical purity) [1, 12]	Purity (radiochemical purity) [1, 13]	Purity (radiochemical purity) [1, 14]	PH (paper) [2, 15]	PH (paper) [2, 16]	PH (paper) [2, 17]	PH (paper) [2, 18]	SMILES	other results
98.33%	98.99%	98.7%	98.29%	6	7.5	6.5	6.5									C/C1=C2/[N-][C@H]([C@H](CC(N)=O)[C@@]2(C)CCC(=O)NC[C@H](C)OP(=O)([O-])O[C@H]2[C@@H](O)[C@@H](n3cnc4cc(C)c(C)cc43)O[C@@H]2CO)[C@]2(C)N=C(/C(C)=C3N=C(/C=C4N=C1[C@@H](CCC(N)=O)C\4(C)C)[C@@H](CCC(N)=O)[C@]\3(C)CC(N)=O)[C@@H](CCC(N)=O)[C@]2(C)CC(N)=O.[Co+2] (stereo in doubt) [VB12, cobalamin]	
98.92%	98.97%	99.1%	98.94%	8	7	7	7	98.79%	98.46%	98.97%	98.94%	5	5.5	5.5	5.5	Cc1ncc(C[n+]2csc(CCO)c2C)c(N)n1 [VB1, thiamine]	Purity (radiochemical purity) ([1]; [^18F]PI-2620, 2 nM phosphate buffer and 10% ethanol, vitamin 0.78 mg/mL, 0 hr): 99.66%; Purity (radiochemical purity) ([1]; [^18F]PI-2620, 2 nM phosphate buffer and 10% ethanol, vitamin 0.78 mg/mL, 2 hr): 99.21%; Purity (radiochemical purity) ([1]; [^18F]PI-2620, 2 nM phosphate buffer and 10% ethanol, vitamin 0.78 mg/mL, 4 hr): 97.63%; Purity (radiochemical purity) ([1]; [^18F]PI-2620, 2 nM phosphate buffer and 10% ethanol, vitamin 0.78 mg/mL, 6 hr): 97.12%; PH (paper) ([2]; 2 nM phosphate buffer and 10% ethanol, vitamin 0.78 mg/mL, 0 hr): 6; PH (paper) ([2]; 2 nM phosphate buffer and 10% ethanol, vitamin 0.78 mg/mL, 2 hr): 6; PH (paper) ([2]; 2 nM phosphate buffer and 10% ethanol, vitamin 0.78 mg/mL, 4 hr): 6; PH (paper) ([2]; 2 nM phosphate buffer and 10% ethanol, vitamin 0.78 mg/mL, 6 hr): 6
98.92%	99.14%	98.8%	98.2%	6	6	6	6	98.06%	95.43%	92.46%	87.76%	6	6	6	6	Nc1ncnc2c1ncn2[C@@H]1O[C@H](COP(=O)(O)O)[C@@H](O)[C@H]1O [VB8, adenosine phosphate]	
99.15%	98.71%	98.83%	98.73%	7	6	7	7	98.01%	94.44%	91.25%	86.09%	6	6	6	6	Nc1ccc(C(=O)O)cc1 [VB10, 4-aminobenzoic acid]	

Second part, the compound before the results:

SMILES	Purity (radiochemical purity) [1, 3]	Purity (radiochemical purity) [1, 4]	Purity (radiochemical purity) [1, 5]	Purity (radiochemical purity) [1, 6]	PH (paper) [2, 7]	PH (paper) [2, 8]	PH (paper) [2, 9]	PH (paper) [2, 10]	Purity (radiochemical purity) [1, 11]	Purity (radiochemical purity) [1, 12]	Purity (radiochemical purity) [1, 13]	Purity (radiochemical purity) [1, 14]	PH (paper) [2, 15]	PH (paper) [2, 16]	PH (paper) [2, 17]	PH (paper) [2, 18]	other results
O=C1O[C@H]([C@@H](O)CO)C([O-])=C1O.[Na+] [Na ascorbate, sodium ascorbate]									99.05%	95.53%	93.77%	90.04%	6	6	6	6	Purity (radiochemical purity) ([1]; [^18F]PI-2620, 100 mg sodium ascorbate, 2 nM phosphate buffer, 10% ethanol, 0 hr): 99.05%; Purity (radiochemical purity) ([1]; [^18F]PI-2620, 100 mg sodium ascorbate, 2 nM phosphate buffer, 10% ethanol, 2 hr): 95.53%; Purity (radiochemical purity) ([1]; [^18F]PI-2620, 100 mg sodium ascorbate, 2 nM phosphate buffer, 10% ethanol, 4 hr): 93.77%; Purity (radiochemical purity) ([1]; [^18F]PI-2620, 100 mg sodium ascorbate, 2 nM phosphate buffer, 10% ethanol, 6 hr): 90.04%; Purity (radiochemical purity) ([1]; [^18F]PI-2620, 200 mg sodium ascorbate, 2 nM phosphate buffer, 10% ethanol, 0 hr): 99.47%; Purity (radiochemical purity) ([1]; [^18F]PI-2620, 200 mg sodium ascorbate, 2 nM phosphate buffer, 10% ethanol, 2 hr): 96.95%; Purity (radiochemical purity) ([1]; [^18F]PI-2620, 200 mg sodium ascorbate, 2 nM phosphate buffer, 10% ethanol, 4 hr): 95.25%; Purity (radiochemical purity) ([1]; [^18F]PI-2620, 200 mg sodium ascorbate, 2 nM phosphate buffer, 10% ethanol, 6 hr): 93.00%; PH (paper) ([2]; 100 mg sodium ascorbate, 2 nM phosphate buffer, 10% ethanol, 0 hr): 6; PH (paper) ([2]; 100 mg sodium ascorbate, 2 nM phosphate buffer, 10% ethanol, 2 hr): 6; PH (paper) ([2]; 100 mg sodium ascorbate, 2 nM phosphate buffer, 10% ethanol, 4 hr): 6; PH (paper) ([2]; 100 mg sodium ascorbate, 2 nM phosphate buffer, 10% ethanol, 6 hr): 6; PH (paper) ([2]; 200 mg sodium ascorbate, 2 nM phosphate buffer, 10% ethanol, 0 hr): 6; PH (paper) ([2]; 200 mg sodium ascorbate, 2 nM phosphate buffer, 10% ethanol, 2 hr): 6; PH (paper) ([2]; 200 mg sodium ascorbate, 2 nM phosphate buffer, 10% ethanol, 4 hr): 6; PH (paper) ([2]; 200 mg sodium ascorbate, 2 nM phosphate buffer, 10% ethanol, 6 hr): 6
[18F]c1cc(-c2ccc3c(n2)[nH]c2ccncc23)ccn1 [[^18F]PI-2620]																	Purity (radiochemical purity) ([1]; [^18F]PI-2620 under three formulation conditions (ethanol with or without phosphate buffer), 6 hr): not decomposed at a high temperature
